Assays:
[1] = biological target: T1, Human recombinant monoamine oxidase B (Homo sapiens, UniProt P27338); assay: Inhibitory effect on the activity of monoamine oxidase B; format: biochemical; conditions: human recombinant MAO-B, substrate benzylamine hydrochloride
T1 construct: host or cells: Sf9 cells
T1 sequence (P27338 1-520): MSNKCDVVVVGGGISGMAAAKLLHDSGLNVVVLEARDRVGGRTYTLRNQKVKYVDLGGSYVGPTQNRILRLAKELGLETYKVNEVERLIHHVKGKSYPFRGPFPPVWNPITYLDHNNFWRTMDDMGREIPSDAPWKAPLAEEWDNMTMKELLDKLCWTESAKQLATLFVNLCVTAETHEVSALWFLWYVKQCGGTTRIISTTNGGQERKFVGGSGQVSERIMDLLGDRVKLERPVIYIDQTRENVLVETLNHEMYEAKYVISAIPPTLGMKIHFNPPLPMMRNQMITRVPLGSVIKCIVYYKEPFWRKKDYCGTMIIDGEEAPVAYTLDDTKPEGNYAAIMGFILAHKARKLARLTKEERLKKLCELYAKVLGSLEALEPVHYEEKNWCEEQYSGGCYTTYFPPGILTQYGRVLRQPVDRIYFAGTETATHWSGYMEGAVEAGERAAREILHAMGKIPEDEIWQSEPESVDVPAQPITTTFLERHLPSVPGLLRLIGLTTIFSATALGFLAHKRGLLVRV
Protocol: Human recombinant monoamine oxidase B expressed in Sf9 cells was used in the test system. In the experiment, firstly, the recombinant monoamine oxidase B was dissolved in the pre-configured HEPES buffer (0.8% NaCl, 0.037% KCl, 0.0135% Na2HPO4.2H2O, 0.1% Glucan, 0.5% HEPES, pH=7.0) at a concentration of 0.3 μg/μL. To each well of a 384-well plate was added 10 μL of monoamine oxidase B solution, and the test compound with different concentrations (the final concentration of DMSO was 1%) (10 gradient concentrations were 10 mM, 1 mM, 100 μM, 10 μM, 1 μM, 100 nM, 10 nM, 1 nM, 0.1 nM, 0.01 nM) were added into the wells respectively. The standard reference compound was R-(−)-Deprenyl, the plate was incubated at room temperature for 15 min. Then, each well filled with 10 μL substrate solution (Benzylamine hydrochloride, 1 mM) was incubated at room temperature for 60 min. Then 20 μL of fluorescein detection reagent was added to each well, which was fully blended and incubated at room temperature for 20 minutes to produce stable fluorescence signal. The fluorescence signal was read by fluorescein labeling instrument, and the value was expressed by relative light intensity (RLU). The inhibitory rate on enzyme activity was calculated according to the experimental results, the calculated formula: Inh %=(Max−Signal)/(Max−Min)*100, wherein Max was the detected value at the maximum concentration of the sample, Min was the detected value at the minimum concentration of the sample, and Signal was the detected value at the current concentration of the sample.
(§1) The standard curve was obtained through the series concentration by experimental test to calculate the IC50.

[2] = biological target: T2, Human recombinant monoamine oxidase A (Homo sapiens, UniProt P21397); assay: Inhibitory effect on the activity of monoamine oxidase A; format: biochemical; conditions: human recombinant MAO-A, substrate p-tyramine hydrochloride
T2 construct: host or cells: Sf9 cells
T2 sequence (P21397 1-527): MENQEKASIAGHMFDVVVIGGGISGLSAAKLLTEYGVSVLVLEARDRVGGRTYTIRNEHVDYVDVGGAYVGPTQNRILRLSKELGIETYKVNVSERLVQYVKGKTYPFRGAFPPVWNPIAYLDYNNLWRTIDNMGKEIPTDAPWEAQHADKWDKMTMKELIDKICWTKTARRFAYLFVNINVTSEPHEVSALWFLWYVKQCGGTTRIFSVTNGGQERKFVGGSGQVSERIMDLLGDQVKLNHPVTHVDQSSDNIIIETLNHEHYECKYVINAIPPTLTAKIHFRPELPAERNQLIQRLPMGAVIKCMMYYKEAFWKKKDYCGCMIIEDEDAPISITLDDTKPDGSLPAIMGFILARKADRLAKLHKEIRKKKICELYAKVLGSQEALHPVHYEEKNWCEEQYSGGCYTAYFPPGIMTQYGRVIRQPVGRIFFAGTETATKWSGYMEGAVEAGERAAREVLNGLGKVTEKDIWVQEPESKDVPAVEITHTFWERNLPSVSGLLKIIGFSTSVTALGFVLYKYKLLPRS
Protocol: Human recombinant monoamine oxidase A expressed in Sf9 cells was used in the test system. In the experiment, firstly, the recombinant monoamine oxidase A was dissolved in the pre-configured HEPES buffer (0.8% NaCl, 0.037% KCl, 0.0135% Na2HPO4.2H2O, 0.1% Glucan, 0.5% HEPES, pH=7.0) at a concentration of 0.3 μg/μL. To each well of a 384-well plate was added 10 μL of monoamine oxidase A solution, and the test compound with different concentrations (the final concentration of DMSO was 1%) (10 gradient concentrations were 10 mM, 1 mM, 100 μM, 10 μM, 1 μM, 100 nM, 10 nM, 1 nM, 0.1 nM, 0.01 nM) were added into the wells, respectively. The standard reference compound was Clorgyline, the plate was incubated at room temperature for 15 min. Then, each well filled with […] (p-Tyramine hydrochloride, 1 mM) was incubated at room temperature for 60 min. Then 20 μL of fluorescein detection reagent was added to each well, which was fully blended and incubated at room temperature for 20 minutes to produce stable fluorescence signal. The fluorescence signal was read by fluorescein labeling instrument, and the value was expressed by relative light intensity (RLU). The inhibitory rate on enzyme activity was calculated according to the experimental results, the calculated formula: Inh %=(Max−Signal)/(Max−Min)*100, wherein Max was the detected value at the maximum concentration of the sample, Min was the detected value at the minimum concentration of the sample, and Signal was the detected value at the current concentration of the sample.
as §1

SMILES | IC50 [1] [nM] | IC50 [2] [µM]
NC(=O)[C@@H]1C[C@H](F)CN1Cc1ccc(OCc2cccc(F)c2)cc1 [Example 1, (2S,4S)-4-fluoro-1-(4-(3-fluorobenzyloxy)benzyl)pyrrolidine-2-formamide] | 19 | 46
NC(=O)[C@@H]1C[C@H](F)CN1Cc1ccc(OCc2cccc(F)c2)cc1F [Example 3, (2S,4S)-4-fluoro-1-(2-fluoro-4-(3-fluorobenzyloxy)benzyl)pyrrolidine-2-formamide] | 30 | 29

— patent US11225460B2, “Pyrrolidineamide derivatives and uses thereof” (SUNSHINE LAKE PHARMA CO., LTD., priority 2019, dated 2022)
